We go through three molecules from publication PMC9399058, “Preclinical evaluation of FAP-2286 for fibroblast activation protein targeted radionuclide imaging and therapy” (European Journal of Nuclear Medicine and Molecular Imaging, 2022).

Where two headings read alike, the source gives them in different places.

The test system of one data set is HEK-FAP xenografts. Nature of the data set: SPECT/CT biodistribution and tumor dosimetry of 177Lu-labeled tracers in HEK-FAP tumor-bearing mice. It is filed as in vivo, mouse. As to conditions: 177Lu-labeled, HEK-FAP tumors. How it is done: (§1) HEK-FAP cell line was generated using the vector pTAR to insert FAP complementary DNA by recombinase-mediated cassette exchange into the pre-tagged HEK293 cells (InSCREENeX). For in vivo HEK-FAP studies, female nude or SCID beige mice (Charles River Laboratories) were subcutaneously implanted with 5 × 10^6 HEK-FAP cells in 150 µL serum-free media:Matrigel (1:1) (Corning). For the patient-derived xenograft (PDX) efficacy study, female NMRI nu/nu mice (Janvier Labs) were subcutaneously implanted with Sarc4809 fragments (Experimental Pharmacology & Oncology Berlin-Buch). All animal experiments were carried out under licenses approved by the respective authorities and in compliance with guidelines on animal welfare.
(§2) Thirty megabecquerels (30 MBq/nmol) ^111In-FAP-2286 (n = 9) or ^111In-FAPI-04 (n = 6) was injected intravenously (IV) into HEK-FAP tumor-bearing mice and the distribution of the radiotracers was assessed using the NanoSPECT/computed tomography (CT) system (Mediso). For PET imaging, 10 MBq of ^68Ga-FAP-2286 or ^68Ga-FAPI-46 (10 MBq/nmol) was given IV into HEK-FAP tumor-bearing mice (n = 3) followed by PET/CT analysis using the nanoScan PET/CT system (Mediso). For SPECT imaging of ^177Lu-labeled FAP-2286 or ^177Lu-labeled FAPI-46, 30 MBq was administered IV (30 MBq/nmol; n = 3) and the distribution of the radiotracers was assessed using the nanoScan SPECT/CT system (Mediso).
(§3) The animal studies were conducted in different laboratories. ^111In-Imaging and efficacy studies using the HEK-FAP model and different doses of ^177Lu-FAP-2286 as well as the Sarc4809 PDX efficacy study took place at Berlin Experimental Imaging Center (BERIC, Germany). The Sarc4809 model was originally derived from a primary lesion of undifferentiated pleomorphic sarcoma. These studies were performed in either female swiss nude (Charles River Laboratories, France – ^111In-Imaging), NMRI nude (Janvier Labs, France – PDX efficacy study) or SCID beige mice (Charles River Laboratories, Germany - ^111In-Imaging). ^68Ga-Imaging and comparative studies with ^177Lu labeled FAP-2286 and FAPI-46 were performed at Minerva Imaging ApS, Denmark using female athymic nude mice (Charles River Laboratories, Germany). For all experiments animals were ordered with an age of approximately 6 weeks. Animals were allowed an acclimatization period of at least one week prior to inoculation. Animals were housed in an animal room with 12 hours light and 12 hours darkness with free access to food and water. A maximum number of 5 animals were housed in the same cage, cages were equipped with nesting material and plastic or paper houses for hiding. Each cage was labeled with study ID, group and animal numbers and test compound. For efficacy studies animals were randomized according to tumor size. Animals were checked daily for any signs of illness or abnormal behavior. Main humane endpoints were defined as tumor volumes > 1500 mm^3, tumor burden > 10% of animal weight, body weight loss >15% and tumor ulceration. When reaching one of these criteria the animal was sacrificed by cervical dislocation. All animal experiments were approved either by the Regional Office for Health and Social Affairs Berlin (LAGeSo), Germany or the National Animal Experiments Inspectorate under the Ministry of Environment and Food of Denmark.
(§4) Imaging and image analysis were performed as described. During the scan, mice were kept under isoflurane anesthesia, and body temperature was maintained under warm air. The following acquisition parameters were used for the respective imaging modality.
(§5) For quantification, VivoQuant (InviCRO) was used to draw regions of interest (ROIs) in relevant tissues, with a ROI drawn over the left ventricle of the heart to serve as blood pool surrogate. […]

A short description of data set [1]: Plasma stability assay, mouse plasma. The class given is in vitro ADME. The conditions noted are these: 24 h at 37 °C. How it is done:
FAP-2286 was incubated in human or mouse plasma at 37 °C for 24 h. Compound concentration was measured using HPLC–MS/MS (Agilent Technologies) and percent concentration remaining was calculated.
FAP-2286 was incubated in 50 µL of plasma with 3.8% sodium citrate as anticoagulant at a concentration of 10 µM. After 1, 2, 4, and 24 hours incubation at 37°C a suitable internal standard was added. FAP-2286 with plasma proteins were precipitated using 150 µL of a precipitation agent consisting of 77% 0.1 M zinc sulfate solution and 23% acetonitrile. Precipitation was carried out on ice for 30 minutes. […]
A nonincubated plasma sample spiked with 10 µM sample concentration was prepared in the same way and was used as the reference. […] The samples were analyzed using an Agilent 1290 UHPLC system coupled to an Agilent 6530 QTOF mass spectrometer.
For the quantitative data analysis, the Agilent Quantitative Analysis B.08.00 software (RRID:SCR_015040) was used. […] The concentration of the compound was determined by external matrix calibration using 6 calibration samples (1, 2.5, 5, 7.5, 10, and 12.5 µM). […] Carryover was determined by analyzing the blank sample directly after the highest calibration sample and comparing the determined peak areas. Recovery was calculated as the ratio between the spiked concentration of the recovery sample and the concentration calculated from the peak area of this sample.

A short description of data set [2]: SPECT/CT biodistribution of 111In-labeled tracers in HEK-FAP tumor-bearing mice. As to conditions: mouse; for tissue uptake at 1 h / tissue uptake at 3 h / tissue uptake at 6 h / tissue uptake at 24 h / tissue uptake at 48 h: in vivo. The class given is in vivo, mouse. How it is done:
as §1, §2, §3, §4, §5

The next data set concerns neoplastic lesions. Also on record: method as in PMID 34168013. As to conditions: patients with pancreatic, breast, ovarian, or colorectal carcinomas ref 51; cited from earlier work.
Data set [3] is described as follows: PET/CT biodistribution of 68Ga-labeled tracers in HEK-FAP tumor-bearing mice. The conditions noted are these: mouse, in vivo, 10 MBq IV, n=3. How it is done:
as §1
Thirty megabecquerels (30 MBq/nmol) ^111In-FAP-2286 (n = 9) or ^111In-FAPI-04 (n = 6) was injected intravenously (IV) into HEK-FAP tumor-bearing mice and the distribution of the radiotracers was assessed using the NanoSPECT/computed tomography (CT) system (Mediso). […] For SPECT imaging of ^177Lu-labeled FAP-2286 or ^177Lu-labeled FAPI-46, 30 MBq was administered IV (30 MBq/nmol; n = 3) and the distribution of the radiotracers was assessed using the nanoScan SPECT/CT system (Mediso). […]
as §5

Take `CCCCCC(=O)N[C@H]1CSCc2cc(CSCCNC(=O)CN3CCN(CC(=O)O)CCN(CC(=O)O)CCN(CC(=O)O)CC3)cc(c2)CSC[C@@H](C(=O)O)NC(=O)[C@H](Cc2ccccc2)NC(=O)[C@H](CCC(N)=O)NC(=O)[C@H]([C@@H](C)O)NC(=O)[C@@H]2CCCN2C(=O)[C@@H]2CCCN2C1=O` [FAP-2286]: in the data set on HEK-FAP xenografts, the “fold higher TIAC compared to FAPI-46” value came to 12 fold and the “fold higher absorbed dose delivered to the tumors compared to FAPI-46” value was determined as 9 fold. In addition, in data set [1], the “percent retained in mouse plasma” value was determined as 85%.

`CCCCCC(=O)N[C@H]1CSCc2cc(CSCCNC(=O)CN3CCN(CC(=O)O)CCN(CC(=O)O)CCN(CC(=O)O)CC3)cc(c2)CSC[C@@H](C(=O)O)NC(=O)[C@H](Cc2ccccc2)NC(=O)[C@H](CCC(N)=O)NC(=O)[C@H]([C@@H](C)O)NC(=O)[C@@H]2CCCN2C(=O)[C@@H]2CCCN2C1=O` [^111In-FAP-2286, metal not drawn]: in data set [2] (female, tumor and kidney, iv, 30 MBq, total radioactivity, tumor-to-kidney, 1 h p.i., read-out: T/K ratio (mean ± SD)), the tissue to tissue ratio at 1 h was determined as 3 ± 1.3. In addition, the tissue to tissue ratio at 3 h in data set [2] (female, tumor and kidney, iv, 30 MBq, total radioactivity, tumor-to-kidney, 3 h p.i., read-out: T/K ratio (mean ± SD)) stood at 4.6 ± 1.9. For the same molecule, the tissue to tissue ratio at 6 h in data set [2] (female, tumor and kidney, iv, 30 MBq, total radioactivity, tumor-to-kidney, 6 h p.i., read-out: T/K ratio (mean ± SD)) is 5 ± 2.8. Besides, the tissue to tissue ratio at 24 h in data set [2] (female, tumor and kidney, iv, 30 MBq, total radioactivity, tumor-to-kidney, 24 h p.i., read-out: T/K ratio (mean ± SD)) was 5.9 ± 3.3. Further, the tissue to tissue ratio at 48 h in data set [2] (female, tumor and kidney, iv, 30 MBq, total radioactivity, tumor-to-kidney, 48 h p.i., read-out: T/K ratio (mean ± SD)) is 7.5 ± 4.8. The tissue uptake at 1 h in data set [2] (1 h p.i., read-out: Salivary Glands %ID/g (mean ± SD)) is 0.6 ± 0.4 %ID/g; in data set [2] (heart, 1 h p.i., read-out: Blood Pool Surrogate %ID/g (mean ± SD)), 0.4 ± 0.1 %ID/g; in data set [2] (iv, 1 h p.i., 30 MBq IV, HEK-FAP mice, n=9, read-out: Tumor %ID/g (mean ± SD)) it was 11.1 ± 4.3 %ID/g; in data set [2] (iv, 1 h p.i., 30 MBq IV, HEK-FAP mice, read-out: Kidney %ID/g (mean ± SD)), 3.9 ± 1 %ID/g; in data set [2] (iv, 1 h p.i., 30 MBq IV, HEK-FAP mice, read-out: Liver %ID/g (mean ± SD)), 0.3 ± 0.1 %ID/g; in data set [2] (non-tumor bearing shoulder, 1 h p.i., read-out: Shoulder %ID/g (mean ± SD)), 1.2 ± 0.6 %ID/g. Further, the tissue uptake at 3 h in data set [2] (3 h p.i., read-out: Salivary Glands %ID/g (mean ± SD)) amounted to 0.2 ± 0.1 %ID/g; in data set [2] (heart, 3 h p.i., read-out: Blood Pool Surrogate %ID/g (mean ± SD)), 0.1 ± 0.1 %ID/g; in data set [2] (iv, 3 h p.i., 30 MBq IV, HEK-FAP mice, read-out: Kidney %ID/g (mean ± SD)), 2.5 ± 0.4 %ID/g; in data set [2] (iv, 3 h p.i., 30 MBq IV, HEK-FAP mice, read-out: Liver %ID/g (mean ± SD)) it was 0.2 ± 0.1 %ID/g; in data set [2] (non-tumor bearing shoulder, 3 h p.i., read-out: Shoulder %ID/g (mean ± SD)), 0.4 ± 0.1 %ID/g. Further, the tissue uptake at 6 h in data set [2] (6 h p.i., read-out: Salivary Glands %ID/g (mean ± SD)) was 0.2 ± 0.2 %ID/g; in data set [2] (heart, 6 h p.i., read-out: Blood Pool Surrogate %ID/g (mean ± SD)) it was 0.1 %ID/g; in data set [2] (iv, 6 h p.i., 30 MBq IV, HEK-FAP mice, n=9, read-out: Tumor %ID/g (mean ± SD)), 11.4 ± 6.6 %ID/g; in data set [2] (iv, 6 h p.i., 30 MBq IV, HEK-FAP mice, read-out: Kidney %ID/g (mean ± SD)), 2.2 ± 0.3 %ID/g; in data set [2] (iv, 6 h p.i., 30 MBq IV, HEK-FAP mice, read-out: Liver %ID/g (mean ± SD)) it was 0.1 %ID/g; in data set [2] (non-tumor bearing shoulder, 6 h p.i., read-out: Shoulder %ID/g (mean ± SD)) it was 0.1 ± 0.1 %ID/g. In addition, the tissue uptake at 24 h in data set [2] (iv, 24 h p.i., 30 MBq IV, HEK-FAP mice, n=9, read-out: Tumor %ID/g (mean ± SD)) came out at 9.7 ± 5.3 %ID/g; in data set [2] (iv, 24 h p.i., 30 MBq IV, HEK-FAP mice, read-out: Kidney %ID/g (mean ± SD)), 1.6 ± 0.2 %ID/g; in data set [2] (iv, 24 h p.i., 30 MBq IV, HEK-FAP mice, read-out: Liver %ID/g (mean ± SD)) it was 0.1 %ID/g; in data set [2] (non-tumor bearing shoulder, 24 h p.i., read-out: Shoulder %ID/g (mean ± SD)), 0.1 %ID/g. Further, the tissue uptake at 48 h in data set [2] (iv, 48 h p.i., 30 MBq IV, HEK-FAP mice, n=9, read-out: Tumor %ID/g (mean ± SD)) was found to be 9.1 ± 5 %ID/g; in data set [2] (iv, 48 h p.i., 30 MBq IV, HEK-FAP mice, read-out: Kidney %ID/g (mean ± SD)), 1.3 ± 0.2 %ID/g; in data set [2] (iv, 48 h p.i., 30 MBq IV, HEK-FAP mice, read-out: Liver %ID/g (mean ± SD)), 0.1 %ID/g; in data set [2] (non-tumor bearing shoulder, 48 h p.i., read-out: Shoulder %ID/g (mean ± SD)), 0.1 %ID/g.

As to `CCCCCC(=O)N[C@H]1CSCc2cc(CSCCNC(=O)CN3CCN(CC(=O)O)CCN(CC(=O)O)CCN(CC(=O)O)CC3)cc(c2)CSC[C@@H](C(=O)O)NC(=O)[C@H](Cc2ccccc2)NC(=O)[C@H](CCC(N)=O)NC(=O)[C@H]([C@@H](C)O)NC(=O)[C@@H]2CCCN2C(=O)[C@@H]2CCCN2C1=O` [^68Ga-FAP-2286, metal not drawn], the “PET/CT uptake in patients” value in the data set on neoplastic lesions was “significant uptake in neoplastic lesions and low presence in normal tissues”. This molecule also yielded a tissue uptake at 0.5 h in data set [3] (0.5 h after administration) of 9.8 %ID/g. This molecule also showed a tissue uptake at 3 h in data set [3] (3 h after injection) of 10.8 %ID/g.
